# Reference: patent publication US4592906A, “Ultra-violet absorbing compounds and compositions containing said compounds” (Graesser Laboratories, Ltd., priority 1984, dated 1986)
# Columns and labels:
# Assay type in all cases: physicochemical
# [1] = Ultra-violet absorption (absorptivity, absorption maximum); conditions: for Absorptivity: c in g/l, path length b in centimeters
# Description: The absorptivity of the following p-dimethylaminocinnamate was measured using the formula [formula] wherein c is concentration in g/l and b is path length in centimeters: […]
# [2] = Solubility in liquid paraffin (mineral oil) at 23; conditions: organic solvent or mixture
# Source text: In particular, their solubilities in liquid paraffin are as follows:
# Ester paraffin at 23 (% wt/vol)
# [3] = Miscibility with liquid paraffin (mineral oil), methanol and water
# [4] = Physical state at room temperature
SMILES,Absorptivity [1] [L/g/cm],solubility [2] [mg/mL],also measured
"CCOC(=O)C=Cc1ccc(N(C)C)cc1 [(2), ethyl p-dimethylaminocinnamate, reference compound]",125,,
"CCCCCCCOC(=O)C=Cc1ccc(N(C)C)cc1 [(b), 1-heptyl p-dimethylaminocinnamate]",,21,
"CC(CCOC(=O)C=Cc1ccc(N(C)C)cc1)CC(C)(C)C (centres unmarked) [(d), 3,5,5-trimethylhexyl p-dimethylaminocinnamate]",,29,
"CCCCCCCCCCOC(=O)C=Cc1ccc(N(C)C)cc1 [(f), 1-decyl p-dimethylaminocinnamate]",,21,

# Continued, in another order:
Absorptivity [1] [L/g/cm],solubility [2] [mg/mL],SMILES,also measured
,24,"CC(C)CCOC(=O)C=Cc1ccc(N(C)C)cc1 [(a), 3-methylbutyl-p-dimethylaminocinnamate]",
89,25,"CCCCCCCCOC(=O)C=Cc1ccc(N(C)C)cc1 [(c), 1-octyl p-dimethylaminocinnamate, reference compound]",
,12,"CC1CC(OC(=O)C=Cc2ccc(N(C)C)cc2)CC(C)(C)C1 (centres unmarked) [(e), 3,3,5-trimethylcyclohexyl p-dimethylaminocinnamate]",
101,,"CCCCC(CC)COC(=O)C=Cc1ccc(N(C)C)cc1 (centres unmarked) [Example 2-Ethylhexyl, 2-Ethylhexyl 4-dimethylaminocinnamate]","miscibility with liquid paraffin (mineral oil) [3]: completely miscible; miscibility with methanol [3]: completely miscible; physical state at room temperature [4]: liquid at room temperature; λmax ([1]; Example 1, prepared product): 360 nm"
95,,"CCCCCCC(C)OC(=O)C=Cc1ccc(N(C)C)cc1 (centres unmarked) [Example 2-Octyl, 2-octyl 4-dimethylaminocinnamate]",miscibility with liquid paraffin (mineral oil) [3]: completely miscible; miscibility with methanol [3]: completely miscible; physical state at room temperature [4]: liquid at room temperature
